Legend:
[1] = test system: S. aureus; experiment: Agar well diffusion test against S. aureus (without BNC); assay type: cell-based, Staphylococcus aureus
Procedure: For the agar diffusion test the OD600 of B. megaterium and B. subtilis was adjusted to 0.1 McFarland using sterilized saline NaCl 0.9%. The OD600 of S. aureus was adjusted to 0.5 McFarland using sterilized saline NaCl 0.9%. 20 μl of S. aureus was spread on the surface of Mueller-Hinton agar plate by a sterilized glass spreader. The wells are […] on the agar plate using the back side of a 1 ml pipette tip. A small volume of Mueller-Hinton agar was melted in boiling water bath, then 100 μl of it was used to close the bottom of each created well. After solidification of the agar in the bottom of the wells, the wells were filled with 100 μl of: Negative control, sterilized saline NaCl 0.9%, Positive control, gentamicin 300 μg/ml, B. megaterium or B. subtilis-free supernatant, B. megaterium or B. subtilis suspension.

[2] = test system: S. aureus; experiment: Agar diffusion test of loaded BNC fleeces against S. aureus; assay type: cell-based, Staphylococcus aureus
Procedure: The evaluation of the antibacterial activity of B. subtilis and B. megaterium loaded—BNC against gram-positive S. aureus was determined by an agar diffusion test. Therefore, the bacterial suspensions of B. subtilis and S. aureus were prepared in TSB broth medium as described before. […] 3 BNC fleeces were loaded using B. subtilis suspension in TSB medium, and 3 BNC fleeces were loaded using B. subtilis suspension in saline. Further 3 BNC fleeces were loaded using the B. subtilis free-supernatant, 3 BNC fleeces were loaded with gentamycin as positive control, and 3 BNC fleeces with isotonic saline as negative control. The OD600 of S. aureus was adjusted to 0.5 McFarland using sterilized saline NaCl 0.9% and the optical density spectrophotometer (Biophotometer) was determined. 20 μl of S. aureus was spread on the surface of Mueller-Hinton agar plate by a sterilized glass spreader. The last control and loaded BNC fleeces were added onto surface of the Mueller Hinton agar: 1. Negative control: saline-loaded BNC 2. Positive control: gentamicin-loaded BNC 3. B. subtilis-loaded BNC in TSB medium 4. B. subtilis-loaded BNC in saline 5. B. subtilis-free supernatant-loaded BNC.

## gentamicin [Gentamycin]
[1]; agar well diffusion, 100 μl per well, 37° C., 24 h
  inhibition zone (in words): inhibition zone
[1]; diffusion test
  inhibition effect on S. aureus, Without BNC: + (by detection of inhibition zone > 2 mm)
[2]
  inhibition effect on S. aureus, on BNC - injection technique: + (by detection of inhibition zone > 2 mm)
  inhibition effect on S. aureus, on BNC - spray technique: + (by detection of inhibition zone > 2 mm)
  inhibition effect on S. aureus, on BNC - vortex technique: + (by detection of inhibition zone > 2 mm)
